pEC50, pIC50, pKi: −log10 of the molar value. Where two headings read alike, the source gives them in different places.
Legend:
human AR [1] = biological target: T1, human AR (Homo sapiens, UniProt P10275); assay: Co-transfection assay, AR agonist activity (CV-1 cells, MTV-LUC reporter); assay type: cell-based; details: for pEC50: agonist potency EC50
T1 sequence (P10275 1-920): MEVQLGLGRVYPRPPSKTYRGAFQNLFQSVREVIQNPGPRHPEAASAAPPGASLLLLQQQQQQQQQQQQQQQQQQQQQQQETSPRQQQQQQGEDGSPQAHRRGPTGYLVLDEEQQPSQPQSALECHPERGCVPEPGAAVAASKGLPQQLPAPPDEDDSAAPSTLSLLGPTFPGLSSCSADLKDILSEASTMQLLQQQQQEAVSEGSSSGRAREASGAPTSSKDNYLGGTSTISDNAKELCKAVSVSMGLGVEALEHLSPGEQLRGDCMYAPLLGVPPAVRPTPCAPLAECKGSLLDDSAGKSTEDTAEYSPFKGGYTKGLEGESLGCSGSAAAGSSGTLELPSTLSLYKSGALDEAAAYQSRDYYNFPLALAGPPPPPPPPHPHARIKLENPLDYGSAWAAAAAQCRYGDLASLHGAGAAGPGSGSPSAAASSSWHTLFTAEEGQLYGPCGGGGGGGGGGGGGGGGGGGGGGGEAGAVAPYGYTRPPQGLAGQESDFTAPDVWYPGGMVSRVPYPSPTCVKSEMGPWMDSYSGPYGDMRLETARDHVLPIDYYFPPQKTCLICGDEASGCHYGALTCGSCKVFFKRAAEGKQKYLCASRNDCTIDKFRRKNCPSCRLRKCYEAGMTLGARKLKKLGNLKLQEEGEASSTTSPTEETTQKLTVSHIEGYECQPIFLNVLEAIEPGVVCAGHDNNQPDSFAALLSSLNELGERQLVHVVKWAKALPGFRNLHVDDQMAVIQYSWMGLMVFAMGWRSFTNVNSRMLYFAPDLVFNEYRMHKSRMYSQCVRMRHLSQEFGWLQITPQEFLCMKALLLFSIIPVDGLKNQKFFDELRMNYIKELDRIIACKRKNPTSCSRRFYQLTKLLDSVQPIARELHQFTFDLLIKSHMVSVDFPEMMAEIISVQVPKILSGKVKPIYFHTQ

human AR [2] = biological target: T1, human AR; assay: Co-transfection assay, AR antagonist activity (CV-1 cells, in presence of DHT); assay type: cell-based; details: for pIC50: read-out: AR Antagonist CV-1 Cells Potency
human AR [3] = biological target: T1, human AR; assay: AR whole cell competitive binding assay (COS-1 cells, 3H-DHT); details: 1 nM 3H-DHT, Cheng-Prusoff
[4] = CV-1 cells, percent maximal inhibition, DHT at its EC50
[5] = CV-1 cells, percent maximal response relative to reference agonist DHT

Row | Compound | pEC50 (human AR [1]; CV-1 cells) | AR Antagonist CV-1 Cells Efficacy (%) (human AR [2]; [4]) | pIC50 (human AR [2]) | pKi (human AR [3]) | AR Agonist CV-1 Cells Efficacy (%) (human AR [1]; [5]) | AR Antagonist CV-1 Cells Efficacy (%) (human AR [2]) | pIC50 (human AR [2]; CV-1 cells, antagonist potency IC50, DHT at its EC50) | AR Agonist CV-1 Cells Efficacy (%) (human AR [1])
1 | Nc1cc2[nH]c(=O)cc(C(F)(F)F)c2cc1C1CCCCC1 [Compound 582, 7-Amino-6-cyclohexyl-4-trifluoromethyl-2(1H)-quinolinone] | < 5.00 | 92% | 7.59 | 7.37 | – | – | – | –
2 | O=c1cc(C(F)(F)F)c2cc(N(CC(F)(F)Cl)CC(F)(F)Cl)ccc2[nH]1 [Compound 225, 6-(bis-2-Chloro-2,2-difluoroethyl)amino-4-trifluoromethyl-2(1H)-quinolinone] | 9.40 | na (na = not active (i.e. efficacy of <20 and potency of >10,000)) | < 5.00 | 9.05 | 90 | – | – | –
3 | O=c1cc(C(F)(F)F)c2cc(N3CCCC[C@@H]3[C@@H](O)C(F)(F)F)ccc2[nH]1 [Compound 457, (+)-6-(2R-(1R-Hydroxy-2,2,2-trifluoroethyl)-1-piperidino)-4-trifluoromethyl-2(1H)-quinolinone] | 8.52 | na (na = not active (i.e. efficacy of <20 and potency of >10,000)) | < 5.00 | 8.49 | 85 | – | – | –
4 | CCCN(CC)c1ccc2[nH]c(=O)cc(C(F)(F)F)c2c1 [Compound 238, 6-(N-Ethyl-N-propyl)amino-4-trifluoromethyl-2(1H)-quinolinone] | 8.28 | na (na = not active (i.e. efficacy of <20 and potency of >10,000)) | < 5.00 | 7.77 | 77 | – | – | –
5 | O=c1cc(C(F)(F)F)c2cc(N(Cc3ccccc3)Cc3ccccc3)ccc2[nH]1 [Compound 272, 6-(bis-N,N-Benzyl)amino-4-trifluoromethyl-2(1H)-quinolinone] | < 5.00 | 67% | 8.15 | < 6.00 | – | – | – | –
6 | Cc1cccc(-c2ccc3[nH]c(=O)cc(C(F)(F)F)c3c2)c1 [Compound 738, 4-Trifluoromethyl-6-(3-methylphenyl)-2(1H)-quinolinone] | < 5.00 | 91% | 7.57 | < 6.00 | – | – | – | –
7 | O=C(Nc1ccc2c(C(F)(F)F)cc(=O)[nH]c2c1)C(F)(F)F [Compound 528, 7-(Trifluoroacetamido)-4-trifluoromethyl-2(1H)-quinolinone] | 5.89 | 59% | 7.59 | – | 36 | – | – | –
8 | CC1OC(=O)Nc2ccc(C3=CCCCC3)cc21 (racemic) [Compound 698, (±)-6-(1-Cyclohexenyl)-1,4-dihydro-4-methyl-1,3-benzo[d]oxazin-2-one] | < 5.00 | 84% | 7.77 | 7.49 | – | – | – | –
9 | O=c1cc(C(F)(F)F)c2cc(N3CCCC[C@H]3CCl)ccc2[nH]1 [Compound 432, (+)S-6-(2-Chloromethyl-1-piperidino)-4-trifluoromethyl-2(1H)-quinolinone] | 8.10 | na (na = not active (i.e. efficacy of <20 and potency of >10,000)) | < 5.00 | 7.49 | 96 | – | – | –
10 | O=c1cc(C(F)(F)F)c2cc(N3CCCc4ccccc43)ccc2[nH]1 [Compound 348, 6-(1-Tetrahydroquinolino)-4-trifluoromethyl-2(1H)-quinolinone] | < 5.00 | 81% | 7.62 | 7.21 | – | – | – | –
11 | CC(C)Nc1ccc2c(C(F)(F)F)cc(=O)[nH]c2c1 [Compound 514, 7-Isopropylamino-4-trifluoromethyl-2(1H)-quinolinone] | – | – | – | – | – | 87% | – | –
12 | CCC(C)c1cc2c(C(F)(F)F)cc(=O)[nH]c2cc1N (centres unmarked) [Compound 581, 7-Amino-6-sec-butyl-4-trifluoromethyl-2(1H)-quinolinone] | – | 23% | – | – | 39 | – | – | –
13 | 4-Methyl-6-(2,4-dichlorolphenyl)-2(1H)-quinolinone [Compound 762] | < 5.00 | 81% | – | – | – | – | 7.20 | –
14 | CCCNc1ccc2[nH]c(=O)cc(C(F)(F)F)c2c1 [Compound 204, 6-Propylamino-4-trifluoromethyl-2(1H)-quinolinone] | – | – | – | – | – | 72% | – | 34
15 | CCN(c1ccc2[nH]c(=O)cc(C(F)(F)F)c2c1)C(C)C [Compound 239, 6-(N-Ethyl-N-isopropyl)amino-4-trifluoromethyl-2(1H)-quinolinone] | – | – | – | – | – | na (key: na = not active (i.e. efficacy of <20 and potency of >10,000)) | – | 83
16 | Cc1cc(=O)[nH]c2ccc(N(CC(F)(F)F)CC(F)(F)F)cc12 [Compound 377, 6-(bis-2,2,2-Trifluoroethyl)amino-4-methyl-2(1H)-quinolinone] | – | – | – | – | – | na (key: na = not active (i.e. efficacy of <20 and potency of >10,000)) | – | 89
17 | CCCNc1ccc2c(C(F)(F)F)cc(=O)[nH]c2c1 [Compound 513, 7-Propylamino-4-trifluoromethyl-2(1H)-quinolinone] | – | – | – | – | – | 84% | – | –
18 | O=c1cc(C(F)(F)F)c2ccc(NCC(F)(F)F)cc2[nH]1 [Compound 523, 7-(N-2,2,2-Trifluoroethyl)amino-4-trifluoromethyl-2(1H)-quinolinone] | – | – | – | – | – | 62% | – | 29
19 | Cc1cc(=O)[nH]c2ccc(N(CC(C)C)CC(F)(F)F)cc12 [Compound 381, 6-(N-Isobutyl-N-2,2,2-trifluoroethyl)amino-4-methyl-2(1H)-quinolinone] | – | na (na = not active (i.e. efficacy of <20 and potency of >10,000)) | – | – | 72 | – | – | –
20 | C=CC(C)(C)Nc1ccc2c(C(F)(F)F)cc(=O)[nH]c2c1 [Compound 559, 7-(1,1-Dimethylallyl)amino-4-trifluoromethyl-2(1H)-quinolinone] | – | – | – | – | – | 92% | – | –
21 | O=c1cc(C(F)(F)F)c2ccc(NCC(F)(F)C(F)(F)F)cc2[nH]1 [Compound 520, 7-(2,2,3,3,3-Pentafluoropropyl)amino-4-trifluoromethyl-2(1H)-quinolinone] | – | – | – | – | – | 76% | – | –
22 | CCCCN(CCCC)c1ccc2[nH]c(=O)cc(C(F)(F)F)c2c1 [Compound 220, 6-Dibutylamino-4-trifluoromethyl-2(1H)-quinolinone] | – | – | – | – | – | 54% | – | 68

Source: patent US7696246B2 (Ligand Pharmaceuticals Incorporated, priority 1999, dated 2010)
